Experimental data: ChEMBL document CHEMBL5154743, “Bicyclic Heterocyclic Replacement of an Aryl Amide Leading to Potent and Kinase-Selective Adaptor Protein 2-Associated Kinase 1 Inhibitors” (J Med Chem, 2022)
pIC50: −log10 of the molar value. Each block holds one compound with its values, some of them ahead of it.

Columns and labels:
[1] = Metabolic stability in mouse liver microsomes assessed as parent compound remaining at 0.5 uM incubated for 10 mins in presence of NADPH by LC-MS/MS analysis; format: ADME, Microsome; details: read-out: Stability
[2] = Plasma protein binding in human assessed as unbound fraction at 10 uM incubated for 5 hrs by rapid equlibrium dialysis based LC-MS/MS method
[3] = Permeability across apical to basolateral side in human Caco-2 cells incubated for 2 hrs by LC-MS/MS analysis
[4] = Metabolic stability in rat liver microsomes assessed as parent compound remaining at 0.5 uM incubated for 10 mins in presence of NADPH by LC-MS/MS analysis; format: ADME, Microsome; details: read-out: Stability
[5] = Metabolic stability in human liver microsomes assessed as parent compound remaining at 0.5 uM incubated for 10 mins in presence of NADPH by LC-MS/MS analysis; format: ADME, Microsome; details: read-out: Stability
[6] = Permeability across basolateral to apical side in human Caco-2 cells incubated for 2 hrs by LC-MS/MS analysis; format: ADME, cell-based; details: for Papp B→A at 2 h: Caco-2, read-out: permeability
[7] = target: T1, AP2-associated protein kinase 1 (Homo sapiens, UniProt Q2M2I8)
T1 sequence (Q2M2I8 whole entry): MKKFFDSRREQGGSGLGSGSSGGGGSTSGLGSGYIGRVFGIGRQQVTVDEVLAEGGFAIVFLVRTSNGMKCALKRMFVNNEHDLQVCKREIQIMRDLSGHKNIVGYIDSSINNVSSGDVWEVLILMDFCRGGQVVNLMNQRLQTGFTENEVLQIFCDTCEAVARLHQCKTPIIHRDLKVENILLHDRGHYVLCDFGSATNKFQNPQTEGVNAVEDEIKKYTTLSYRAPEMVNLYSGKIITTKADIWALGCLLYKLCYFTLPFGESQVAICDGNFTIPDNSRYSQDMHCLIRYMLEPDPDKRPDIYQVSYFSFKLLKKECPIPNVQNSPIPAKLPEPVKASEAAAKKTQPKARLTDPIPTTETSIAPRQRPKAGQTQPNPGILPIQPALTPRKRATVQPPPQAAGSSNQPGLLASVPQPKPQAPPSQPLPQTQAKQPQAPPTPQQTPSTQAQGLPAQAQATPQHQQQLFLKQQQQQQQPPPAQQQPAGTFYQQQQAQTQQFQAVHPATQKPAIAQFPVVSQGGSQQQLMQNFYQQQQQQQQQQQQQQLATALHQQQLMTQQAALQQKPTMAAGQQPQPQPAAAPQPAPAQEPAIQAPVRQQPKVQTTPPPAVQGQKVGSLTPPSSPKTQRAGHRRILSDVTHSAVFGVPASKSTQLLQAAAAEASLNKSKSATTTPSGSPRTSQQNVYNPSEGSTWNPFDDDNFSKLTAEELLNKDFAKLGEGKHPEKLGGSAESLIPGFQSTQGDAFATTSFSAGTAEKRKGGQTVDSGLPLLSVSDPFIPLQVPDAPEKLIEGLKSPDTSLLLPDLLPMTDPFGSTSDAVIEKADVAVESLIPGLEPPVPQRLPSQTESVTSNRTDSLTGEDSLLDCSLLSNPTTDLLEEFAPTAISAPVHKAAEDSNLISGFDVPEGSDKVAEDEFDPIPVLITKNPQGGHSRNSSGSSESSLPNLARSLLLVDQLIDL

[8] = Plasma protein binding in rat assessed as unbound fraction at 10 uM incubated for 5 hrs by rapid equlibrium dialysis based LC-MS/MS method
[9] = Permeability of the compound at pH 7.4 by PAMPA; format: ADME; details: read-out: permeability
[10] = Permeability of the compound at pH 5.5 by PAMPA; format: ADME; details: read-out: permeability
[11] = target: T1, AP2-associated protein kinase 1; assay: Inhibition of full length human AAK1 expressed in HEK293F incubated for 3 hrs by Western blot analysis; format: cell-based
[12] = Plasma protein binding in mouse assessed as unbound fraction at 10 uM incubated for 5 hrs by rapid equlibrium dialysis based LC-MS/MS method
[13] = Plasma concentration in C57BL6 mouse at 60 mg/kg, sc by LC-MS/MS analysis; format: ADME, organism-based; details: in vivo
[14] = Ratio of drug concentration in brain to plasma in C57BL6 mouse at 60 mg/kg, sc; format: ADME, organism-based; details: read-out: BPR
[15] = Brain concentration in C57BL6 mouse at 60 mg/kg, sc by LC-MS analysis; format: ADME, organism-based; details: in vivo, read-out: Ct
[16] = Unbound brain to plasma concentration ratio in C57BL6 mouse at 60 mg/kg, sc; format: ADME, organism-based; details: read-out: K(p,uu,brain)
[17] = target: Serine/threonine-protein kinase 16 (Homo sapiens, UniProt O75716); assay: Inhibition of MPSK1 (unknown origin)
Sequence of Serine/threonine-protein kinase 16 (O75716 whole entry): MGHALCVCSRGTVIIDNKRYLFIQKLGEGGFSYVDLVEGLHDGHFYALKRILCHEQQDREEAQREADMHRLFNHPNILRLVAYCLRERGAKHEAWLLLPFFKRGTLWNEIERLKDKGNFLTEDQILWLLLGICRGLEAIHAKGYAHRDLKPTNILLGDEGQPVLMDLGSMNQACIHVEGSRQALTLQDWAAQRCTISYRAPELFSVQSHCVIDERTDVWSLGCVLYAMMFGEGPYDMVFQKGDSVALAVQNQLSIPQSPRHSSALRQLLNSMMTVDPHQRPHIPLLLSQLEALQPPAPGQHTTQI

[18] = Plasma concentration in C57BL6 mouse at 30 mg/kg, sc by LC-MS/MS analysis; format: ADME, organism-based; details: in vivo
[19] = target: T2, Serine/threonine-protein kinase Chk1 (Homo sapiens, UniProt O14757); assay: Inhibition of CHK1 (unknown origin)
T2 sequence (O14757 whole entry): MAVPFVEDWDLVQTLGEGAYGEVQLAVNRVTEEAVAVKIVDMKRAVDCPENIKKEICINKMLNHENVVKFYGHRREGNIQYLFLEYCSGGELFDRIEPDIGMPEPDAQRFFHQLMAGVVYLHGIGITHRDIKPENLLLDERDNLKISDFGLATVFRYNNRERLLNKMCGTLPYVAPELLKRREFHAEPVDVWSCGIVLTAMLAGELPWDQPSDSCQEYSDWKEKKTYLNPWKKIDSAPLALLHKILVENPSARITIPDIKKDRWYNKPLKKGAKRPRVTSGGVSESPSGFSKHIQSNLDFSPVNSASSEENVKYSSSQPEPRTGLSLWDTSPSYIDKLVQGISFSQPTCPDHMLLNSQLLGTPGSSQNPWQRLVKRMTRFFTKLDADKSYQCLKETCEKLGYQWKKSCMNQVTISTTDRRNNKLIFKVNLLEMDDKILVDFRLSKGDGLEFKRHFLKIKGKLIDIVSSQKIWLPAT

[20] = target: Glycogen synthase kinase-3 beta (Homo sapiens, UniProt P49841); assay: Inhibition of GSK3beta (unknown origin)
Sequence of Glycogen synthase kinase-3 beta (P49841 whole entry): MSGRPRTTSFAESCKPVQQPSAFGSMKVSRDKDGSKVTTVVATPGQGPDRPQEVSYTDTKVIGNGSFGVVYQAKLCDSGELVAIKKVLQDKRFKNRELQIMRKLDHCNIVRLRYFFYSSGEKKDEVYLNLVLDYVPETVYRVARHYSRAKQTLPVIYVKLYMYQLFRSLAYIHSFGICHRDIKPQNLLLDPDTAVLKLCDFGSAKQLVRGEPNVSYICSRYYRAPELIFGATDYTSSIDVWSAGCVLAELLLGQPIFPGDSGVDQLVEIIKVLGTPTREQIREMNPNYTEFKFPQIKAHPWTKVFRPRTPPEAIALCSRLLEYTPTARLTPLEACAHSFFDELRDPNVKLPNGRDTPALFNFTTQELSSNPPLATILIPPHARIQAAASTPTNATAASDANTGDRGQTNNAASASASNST

[21] = Ratio of drug concentration in brain to plasma in C57BL6 mouse at 30 mg/kg, sc; format: ADME, organism-based; details: read-out: BPR
[22] = target: MAP kinase-interacting serine/threonine-protein kinase 1 (Homo sapiens, UniProt Q9BUB5); assay: Inhibition of MNK1 (unknown origin)
Sequence of MAP kinase-interacting serine/threonine-protein kinase 1 (Q9BUB5 whole entry): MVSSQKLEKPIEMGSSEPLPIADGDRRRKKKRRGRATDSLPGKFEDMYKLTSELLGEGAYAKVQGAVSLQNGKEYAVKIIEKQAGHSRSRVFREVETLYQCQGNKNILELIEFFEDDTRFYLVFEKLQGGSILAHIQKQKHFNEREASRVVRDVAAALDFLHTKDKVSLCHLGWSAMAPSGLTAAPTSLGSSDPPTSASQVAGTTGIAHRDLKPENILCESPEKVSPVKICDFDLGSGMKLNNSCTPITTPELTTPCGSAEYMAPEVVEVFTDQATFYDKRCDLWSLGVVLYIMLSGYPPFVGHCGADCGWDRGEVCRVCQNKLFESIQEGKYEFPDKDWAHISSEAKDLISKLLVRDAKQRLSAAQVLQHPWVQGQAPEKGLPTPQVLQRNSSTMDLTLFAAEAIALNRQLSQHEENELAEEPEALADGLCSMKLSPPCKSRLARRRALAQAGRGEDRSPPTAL

[23] = Unbound brain to plasma concentration ratio in C57BL6 mouse at 30 mg/kg, sc; format: ADME, organism-based; details: read-out: K(p,uu,brain)
[24] = Brain concentration in C57BL6 mouse at 30 mg/kg, sc by LC-MS analysis; format: ADME, organism-based; details: in vivo, read-out: Ct
[25] = target: T3, Cyclin-G-associated kinase (Homo sapiens, UniProt O14976); assay: Inhibition of GAK (unknown origin)
T3 sequence (O14976 whole entry): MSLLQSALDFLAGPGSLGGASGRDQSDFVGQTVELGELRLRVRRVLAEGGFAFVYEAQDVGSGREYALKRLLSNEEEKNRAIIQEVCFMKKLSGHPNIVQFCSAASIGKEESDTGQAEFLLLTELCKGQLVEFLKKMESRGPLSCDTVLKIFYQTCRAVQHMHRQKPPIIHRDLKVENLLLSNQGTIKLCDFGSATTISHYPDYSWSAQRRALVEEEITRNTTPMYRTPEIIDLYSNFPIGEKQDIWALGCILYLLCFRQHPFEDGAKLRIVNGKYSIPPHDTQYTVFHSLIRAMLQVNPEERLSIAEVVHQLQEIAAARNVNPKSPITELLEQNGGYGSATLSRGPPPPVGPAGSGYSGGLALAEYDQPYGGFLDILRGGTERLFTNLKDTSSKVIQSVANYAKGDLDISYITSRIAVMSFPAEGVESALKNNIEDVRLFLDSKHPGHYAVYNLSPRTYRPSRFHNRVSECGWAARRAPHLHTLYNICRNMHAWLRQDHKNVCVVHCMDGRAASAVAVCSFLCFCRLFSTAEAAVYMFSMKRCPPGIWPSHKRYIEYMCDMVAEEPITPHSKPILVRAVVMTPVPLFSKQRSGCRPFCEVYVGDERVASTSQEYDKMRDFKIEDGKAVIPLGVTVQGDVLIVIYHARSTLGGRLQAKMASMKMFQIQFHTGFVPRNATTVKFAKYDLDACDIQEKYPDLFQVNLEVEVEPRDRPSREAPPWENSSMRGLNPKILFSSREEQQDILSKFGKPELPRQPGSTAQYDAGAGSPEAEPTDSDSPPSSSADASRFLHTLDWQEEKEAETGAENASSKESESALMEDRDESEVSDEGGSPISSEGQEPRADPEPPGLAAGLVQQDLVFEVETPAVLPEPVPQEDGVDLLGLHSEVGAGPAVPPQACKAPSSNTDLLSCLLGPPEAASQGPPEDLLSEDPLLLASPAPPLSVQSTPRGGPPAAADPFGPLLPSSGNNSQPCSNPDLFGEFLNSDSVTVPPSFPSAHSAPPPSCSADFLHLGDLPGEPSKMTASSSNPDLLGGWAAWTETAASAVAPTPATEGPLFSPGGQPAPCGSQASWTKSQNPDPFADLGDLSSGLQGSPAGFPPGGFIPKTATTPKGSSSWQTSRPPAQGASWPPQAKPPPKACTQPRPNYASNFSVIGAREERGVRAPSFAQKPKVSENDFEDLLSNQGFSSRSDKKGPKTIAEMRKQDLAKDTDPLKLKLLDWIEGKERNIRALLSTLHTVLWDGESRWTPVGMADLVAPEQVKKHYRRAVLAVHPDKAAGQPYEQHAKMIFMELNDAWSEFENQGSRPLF

[26] = target: BMP-2-inducible protein kinase (Homo sapiens, UniProt Q9NSY1); assay: Inhibition of BIKE (unknown origin)
Sequence of BMP-2-inducible protein kinase (Q9NSY1 whole entry): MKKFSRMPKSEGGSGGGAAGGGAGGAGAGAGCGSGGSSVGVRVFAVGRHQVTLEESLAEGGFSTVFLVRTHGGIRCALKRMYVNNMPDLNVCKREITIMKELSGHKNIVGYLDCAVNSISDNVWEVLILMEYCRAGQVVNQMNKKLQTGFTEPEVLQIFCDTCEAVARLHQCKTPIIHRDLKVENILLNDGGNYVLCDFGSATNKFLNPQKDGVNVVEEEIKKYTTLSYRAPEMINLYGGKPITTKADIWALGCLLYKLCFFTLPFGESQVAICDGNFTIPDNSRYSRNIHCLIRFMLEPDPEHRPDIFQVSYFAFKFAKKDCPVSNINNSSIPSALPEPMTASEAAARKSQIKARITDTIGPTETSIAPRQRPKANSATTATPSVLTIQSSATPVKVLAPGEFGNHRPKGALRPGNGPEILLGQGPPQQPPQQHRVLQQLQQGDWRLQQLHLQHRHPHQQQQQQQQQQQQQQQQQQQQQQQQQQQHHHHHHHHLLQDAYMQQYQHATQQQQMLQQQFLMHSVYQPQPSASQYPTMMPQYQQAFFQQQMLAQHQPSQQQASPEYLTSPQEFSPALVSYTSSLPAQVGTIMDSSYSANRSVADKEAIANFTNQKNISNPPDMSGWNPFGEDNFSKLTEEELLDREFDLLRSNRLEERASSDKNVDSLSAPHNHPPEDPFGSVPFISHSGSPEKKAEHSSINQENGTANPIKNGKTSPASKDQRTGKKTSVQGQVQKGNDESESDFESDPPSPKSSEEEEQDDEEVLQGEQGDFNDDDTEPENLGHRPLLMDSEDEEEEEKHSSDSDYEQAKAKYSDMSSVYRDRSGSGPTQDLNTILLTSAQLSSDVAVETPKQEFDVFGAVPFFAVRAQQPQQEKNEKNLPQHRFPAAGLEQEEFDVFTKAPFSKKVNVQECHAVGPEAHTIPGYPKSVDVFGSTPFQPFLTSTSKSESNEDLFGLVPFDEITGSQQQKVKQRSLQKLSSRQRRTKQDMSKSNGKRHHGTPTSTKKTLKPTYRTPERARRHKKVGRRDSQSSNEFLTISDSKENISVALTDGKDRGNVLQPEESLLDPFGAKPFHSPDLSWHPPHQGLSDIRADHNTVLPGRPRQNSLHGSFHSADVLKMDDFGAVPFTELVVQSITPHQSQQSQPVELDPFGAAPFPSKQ

Structure (SMILES): CC(C)CC(N)c1nc2ccc(-c3ccncc3)cc2cc1C#N (centres undefined)
- pIC50 [7]: 5.74

Structure (SMILES): CCOc1nc(C(N)CC(C)C)nc2ccc(-c3cnco3)cc12 (centres undefined)
- pIC50 [7]: 6.47

Structure (SMILES): CCc1nc([C@H](N)CC(C)C)nc2cc(OC)c(-c3cnco3)cc12
- pIC50 [7]: 7.02

Structure (SMILES): CC(C)C[C@@H](N)C(=O)Nc1ccc(-c2cnco2)c(OC(F)F)c1
- concentration [13]: 41 µM
- Kp [14]: 0.7
- permeability ([6]; caco-2, 2 h): 11.3 10^-6 cm/s
- concentration [15]: 27 µM
- Papp [9]: 91.8 ×10⁻⁶ cm/s
- Papp [10]: 96.7 ×10⁻⁶ cm/s
- Kp uu [16]: 0.5

Structure (SMILES): CC(C)C[C@H](N)c1cc(C#N)c2cc(-c3ccncc3)ccc2n1
- pIC50 [17]: < 6.00
- remaining at 10 min, 0.5 µM [1]: 56%
- concentration [18]: 16 µM
- fraction unbound at 5 h, 10 µM [2]: 0.18
- Papp A→B at 2 h [3]: 11.4 ×10⁻⁶ cm/s
- remaining at 10 min, 0.5 µM [4]: 50%
- remaining at 10 min, 0.5 µM [5]: 72%
- pIC50 [19]: 6.00
- pIC50 [20]: 6.95
- Papp B→A at 2 h [6]: 4.4 ×10⁻⁶ cm/s
- pIC50 [7]: 8.24
- fraction unbound at 5 h, 10 µM [8]: 0.054
- Kp [21]: 1.5
- pIC50 [22]: 7.24
- Papp [9]: 96.9 ×10⁻⁶ cm/s
- Kp uu [23]: 0.4
- Papp [10]: 112 ×10⁻⁶ cm/s
- concentration [24]: 23 µM
- pIC50 [11]: 7.72
- pIC50 [25]: < 6.00
- pIC50 [26]: 6.79
- fraction unbound at 5 h, 10 µM [12]: 0.14

Structure (SMILES): CCc1nc([C@H](N)CC(C)C)nc2ccc(-c3cnco3)cc12
- pIC50 [7]: 6.66

Structure (SMILES): COc1cc2nc(C(N)CC(C)C)ncc2cc1-c1cnco1 (centres undefined)
- pIC50 [7]: 6.96

Structure (SMILES): CCNc1nc(C(N)CC(C)C)nc2ccc(-c3cnco3)cc12 (centres undefined)
- pIC50 [7]: 5.96

Structure (SMILES): CCc1nc(C(N)CC(C)C)nc2ccc(-c3cnco3)cc12 (centres undefined)
- pIC50 [7]: 7.17

Structure (SMILES): CC(C)CC(N)c1cc(C#N)c2cc(-c3ccncc3)ccc2n1 (centres undefined)
- pIC50 [7]: 8.14

Structure (SMILES): CCc1nc(C(N)CC(C)C)nc2cc(OC)c(-c3ccncc3)cc12 (centres undefined)
- pIC50 [7]: 6.38

Structure (SMILES): CC(C)C[C@@H](N)c1cc(C#N)c2cc(-c3ccncc3)ccc2n1
- remaining at 10 min, 0.5 µM [1]: 77%
- concentration [18]: 23 µM
- fraction unbound at 5 h, 10 µM [2]: 0.18
- Papp A→B at 2 h [3]: 13.5 ×10⁻⁶ cm/s
- remaining at 10 min, 0.5 µM [4]: 43%
- remaining at 10 min, 0.5 µM [5]: 83%
- Papp B→A at 2 h [6]: 10.3 ×10⁻⁶ cm/s
- pIC50 [7]: 7.96
- fraction unbound at 5 h, 10 µM [8]: 0.045
- Kp [21]: 1.3
- Papp [9]: 30.7 ×10⁻⁶ cm/s
- Kp uu [23]: 0.4
- Papp [10]: 40 ×10⁻⁶ cm/s
- concentration [24]: 29 µM
- pIC50 [11]: 6.97
- fraction unbound at 5 h, 10 µM [12]: 0.13

Results, then the compound that gave them:

- remaining at 10 min, 0.5 µM [1]: 47%
- fraction unbound at 5 h, 10 µM [2]: 0.17
- Papp A→B at 2 h [3]: 13.4 ×10⁻⁶ cm/s
- remaining at 10 min, 0.5 µM [4]: 43%
- remaining at 10 min, 0.5 µM [5]: 83%
- Papp B→A at 2 h [6]: 14.2 ×10⁻⁶ cm/s
- pIC50 [7]: 7.92
- fraction unbound at 5 h, 10 µM [8]: 0.077
- Papp [9]: 78.5 ×10⁻⁶ cm/s
- Papp [10]: 80.3 ×10⁻⁶ cm/s
- pIC50 [11]: 7.47
- fraction unbound at 5 h, 10 µM [12]: 0.1
Structure (SMILES): CCc1nc([C@@H](N)CC(C)C)nc2cc(OC)c(-c3cnco3)cc12

- remaining at 10 min, 0.5 µM [1]: 56%
- fraction unbound at 5 h, 10 µM [2]: 0.32
- Papp A→B at 2 h [3]: 18.4 ×10⁻⁶ cm/s
- remaining at 10 min, 0.5 µM [4]: 26%
- remaining at 10 min, 0.5 µM [5]: 62%
- Papp B→A at 2 h [6]: 15.6 ×10⁻⁶ cm/s
- pIC50 [7]: 7.52
- fraction unbound at 5 h, 10 µM [8]: 0.25
- Papp [9]: 90.7 ×10⁻⁶ cm/s
- Papp [10]: 93.5 ×10⁻⁶ cm/s
- pIC50 [11]: 7.31
- fraction unbound at 5 h, 10 µM [12]: 0.11
Structure (SMILES): CCc1nc([C@@H](N)CC(C)C)nc2ccc(-c3cnco3)cc12

- pIC50 [7]: 7.68
Structure (SMILES): CC(C)CC(N)c1ccc2cc(-c3ccncc3)ccc2n1 (centres undefined)

- pIC50 [7]: 7.66
Structure (SMILES): CC(C)C[C@@H](N)c1cc(C#N)c2cc(-c3cnco3)ccc2n1

- remaining at 10 min, 0.5 µM [1]: 71%
- fraction unbound at 5 h, 10 µM [2]: 0.014
- Papp A→B at 2 h [3]: 7.1 ×10⁻⁶ cm/s
- remaining at 10 min, 0.5 µM [4]: 56%
- remaining at 10 min, 0.5 µM [5]: 76%
- Papp B→A at 2 h [6]: 5.7 ×10⁻⁶ cm/s
- pIC50 [7]: 8.38
- fraction unbound at 5 h, 10 µM [8]: 0.009
- Papp [9]: 93 ×10⁻⁶ cm/s
- pIC50 [11]: 7.49
- fraction unbound at 5 h, 10 µM [12]: 0.03
Structure (SMILES): CC(C)C[C@H](N)c1cc(C#N)c2cc(-c3cnco3)ccc2n1

- pIC50 [7]: 7.80
Structure (SMILES): CC(C)CC(N)c1nc(C#N)c2cc(-c3ccncc3)ccc2n1 (centres undefined)

- pIC50 [7]: 7.36
Structure (SMILES): CCc1nc(C(N)CC(C)C)nc2ccc(-c3ccncc3)cc12 (centres undefined)

- pIC50 [7]: 8.21
Structure (SMILES): COc1cc2nc(C(N)CC(C)C)nc(C#N)c2cc1-c1cnco1 (centres undefined)
